Reference: patent US20260021103A1, “IKZF2 AND CK1-ALPHA DEGRADING COMPOUNDS AND USES THEREOF” (President and Fellows of Harvard College, priority 2022, published 2026)

Experiments:
[1] = system: endometrioid ovarian cancer cell line A2780; assay: 5-day MTT assay in A2780 cells; format: cell-based; details: A2780, 5-day MTT assay
Method: (§1) Viability Assay: 10,000 cells (e.g., MOLM-13 cells, MLL-AF9 leukemic cells or normal BM cells) were plated onto flat-bottom 96-well plates in media with increasing concentration of compound up to […]. […] For measuring viability, Cell-Titer Glo kit (Promega) or MTT kit was used following manufacturer's instructions. For Cell-Titer Glo assay, cells were cooled to room temperature for 20-30 min, 100 μL of the cultured cells were transferred to opaque-white bottom 96-well plates and mixed with 100 μL of Cell-Titer Glo reagent. The mixture was incubated for 15 min at room temperature and read using a Synergy H1 Hybrid reader (BioTek) for luminescence. Data was normalized as percentage viability and graphed by non-linear regression curves in Graph Pad PRISM 7.0.

[2] = system: DLBCL cell line OCI-LY3; assay: 5-day MTT assay in OCI-LY3 cells; format: cell-based; details: OCI-LY3, 5-day MTT assay
Method: as §1

[3] = system: small cell lung cancer cell line NCI-H1048; assay: 5-day MTT assay in NCI-H1048 cells; format: cell-based; details: NCI-H1048, 5-day MTT assay
Method: as §1

[4] = In vitro solubility in DMSO; format: physicochemical
[5] = system: MOLM-13 cells; assay: Cell viability assay in MOLM-13 cells; format: cell-based; details: Homo sapiens, read-out: IC50 (cytotoxicity)
Method: Viability Assay: 10,000 cells (e.g., MOLM-13 cells, MLL-AF9 leukemic cells or normal BM cells) were plated onto flat-bottom 96-well plates in media with increasing concentration of compound up to 100 µM. Cells were cultured for 72 h at 37° C. in a 5% CO2 incubator. For measuring viability, Cell-Titer Glo kit (Promega) or MTT kit was used following manufacturer's instructions. For Cell-Titer Glo assay, cells were cooled to room temperature for 20-30 min, 100 μL of the cultured cells were transferred to opaque-white bottom 96-well plates and mixed with 100 μL of Cell-Titer Glo reagent. The mixture was incubated for 15 min at room temperature and read using a Synergy H1 Hybrid reader (BioTek) for luminescence. Data was normalized as percentage viability and graphed by non-linear regression curves in Graph Pad PRISM 7.0.

[6] = target: T1, IKZF1 (Homo sapiens, UniProt Q13422+Q96SW2); assay: Flow cytometry for measuring degradation, HEK293T GFP-POI reporter cells (IKZF1); format: cell-based; details: for IKZF1% degradation at 100 nM / IKZF1% degradation at 1 μM: 24 h, HEK293T GFP reporter
T1 construct: expressed in transfected cells; host or cells: HEK293T (lentiviral transduction, puromycin selection, FACS sorting)

[7] = target: T2, IKZF2 (Homo sapiens, UniProt Q96SW2+Q9UKS7); assay: Flow cytometry for measuring degradation, HEK293T GFP-POI reporter cells (IKZF2); format: cell-based; details: for IKZF2% degradation at 100 nM / IKZF2% degradation at 1 μM: 24 h, HEK293T GFP reporter
T2 construct: expressed in transfected cells; host or cells: HEK293T (lentiviral transduction, puromycin selection, FACS sorting)

[8] = target: T3, CK1α (Homo sapiens, UniProt P48729+Q96SW2); assay: Flow cytometry for measuring degradation, HEK293T GFP-POI reporter cells (CK1α); format: cell-based; details: for CK1α % degradation at 100 nM / CK1α % degradation at 1 μM: 24 h, HEK293T GFP reporter
T3 construct: expressed in transfected cells; host or cells: HEK293T (lentiviral transduction, puromycin selection, FACS sorting)

[9] = system: CK1α and/or IKZF2; assay: Panel of reporter cell lines (HEK293T cells expressing protein tagged with eGFP), substrate scope; format: cell-based; details: 100 nM or 1 μM
[10] = target: GSPT1 (Homo sapiens, UniProt P15170+Q96SW2); assay: Flow cytometry for measuring degradation, HEK293T GFP-POI reporter cells (GSPT1); format: cell-based; set-up: expressed in transfected cells; host or cells: HEK293T; details: for GSPT1% degradation at 100 nM / GSPT1% degradation at 1 μM: 24 h, HEK293T GFP reporter
Chain of GSPT1 (P15170 whole entry): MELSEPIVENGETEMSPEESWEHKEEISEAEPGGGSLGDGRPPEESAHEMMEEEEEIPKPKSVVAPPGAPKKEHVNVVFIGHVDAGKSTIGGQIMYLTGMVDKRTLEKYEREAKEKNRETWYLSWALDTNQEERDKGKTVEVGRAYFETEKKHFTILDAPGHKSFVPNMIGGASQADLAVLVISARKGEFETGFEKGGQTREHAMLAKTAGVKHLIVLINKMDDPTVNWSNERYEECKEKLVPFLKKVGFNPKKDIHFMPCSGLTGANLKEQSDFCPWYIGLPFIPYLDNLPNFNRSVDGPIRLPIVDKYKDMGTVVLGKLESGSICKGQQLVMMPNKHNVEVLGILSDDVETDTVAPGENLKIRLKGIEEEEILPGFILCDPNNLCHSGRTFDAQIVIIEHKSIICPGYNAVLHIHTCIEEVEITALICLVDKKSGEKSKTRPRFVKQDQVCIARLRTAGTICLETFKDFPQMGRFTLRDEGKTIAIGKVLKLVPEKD
Chain of GSPT1 (Q96SW2 whole entry): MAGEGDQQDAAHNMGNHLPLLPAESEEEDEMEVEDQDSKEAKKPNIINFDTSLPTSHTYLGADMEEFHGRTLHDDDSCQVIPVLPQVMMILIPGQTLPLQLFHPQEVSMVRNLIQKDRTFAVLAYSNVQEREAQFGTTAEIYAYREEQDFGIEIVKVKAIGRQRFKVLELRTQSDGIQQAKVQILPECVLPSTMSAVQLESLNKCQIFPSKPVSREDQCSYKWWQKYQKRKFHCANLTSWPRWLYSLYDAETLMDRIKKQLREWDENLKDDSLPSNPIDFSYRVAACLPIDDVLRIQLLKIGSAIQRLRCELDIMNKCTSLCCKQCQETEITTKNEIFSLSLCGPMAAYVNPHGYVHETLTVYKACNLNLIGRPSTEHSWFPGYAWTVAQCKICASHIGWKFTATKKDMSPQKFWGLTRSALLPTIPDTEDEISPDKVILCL
Chain of GSPT1 (Q16531 whole entry partner): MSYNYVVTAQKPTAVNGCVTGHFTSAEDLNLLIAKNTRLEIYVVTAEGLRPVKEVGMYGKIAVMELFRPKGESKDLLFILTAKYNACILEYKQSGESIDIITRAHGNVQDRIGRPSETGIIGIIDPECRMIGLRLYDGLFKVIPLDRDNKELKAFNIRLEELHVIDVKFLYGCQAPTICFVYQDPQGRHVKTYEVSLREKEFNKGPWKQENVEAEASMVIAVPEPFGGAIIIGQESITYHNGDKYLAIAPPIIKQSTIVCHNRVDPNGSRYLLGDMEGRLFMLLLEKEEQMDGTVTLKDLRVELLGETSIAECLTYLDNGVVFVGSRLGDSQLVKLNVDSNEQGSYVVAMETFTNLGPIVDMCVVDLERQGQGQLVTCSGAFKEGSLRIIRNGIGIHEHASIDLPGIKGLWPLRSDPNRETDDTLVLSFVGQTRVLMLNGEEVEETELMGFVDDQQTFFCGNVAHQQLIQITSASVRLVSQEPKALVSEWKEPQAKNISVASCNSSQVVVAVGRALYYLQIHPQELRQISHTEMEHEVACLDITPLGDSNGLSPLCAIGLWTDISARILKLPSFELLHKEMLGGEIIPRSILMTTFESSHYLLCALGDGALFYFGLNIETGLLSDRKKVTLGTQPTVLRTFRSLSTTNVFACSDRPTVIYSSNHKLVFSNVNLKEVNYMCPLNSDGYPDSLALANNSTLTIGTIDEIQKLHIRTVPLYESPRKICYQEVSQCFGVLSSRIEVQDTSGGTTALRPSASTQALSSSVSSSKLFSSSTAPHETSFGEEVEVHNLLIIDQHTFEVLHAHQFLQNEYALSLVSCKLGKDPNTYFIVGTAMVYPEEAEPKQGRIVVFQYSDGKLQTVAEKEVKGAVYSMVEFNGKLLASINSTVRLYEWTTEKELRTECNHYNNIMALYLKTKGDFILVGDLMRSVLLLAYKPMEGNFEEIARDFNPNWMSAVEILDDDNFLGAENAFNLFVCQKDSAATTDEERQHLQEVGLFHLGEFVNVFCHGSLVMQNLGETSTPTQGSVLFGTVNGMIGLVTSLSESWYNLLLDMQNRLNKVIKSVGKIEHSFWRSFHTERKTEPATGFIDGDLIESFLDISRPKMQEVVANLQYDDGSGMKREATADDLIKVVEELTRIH

T1 sequence (Q13422 whole entry): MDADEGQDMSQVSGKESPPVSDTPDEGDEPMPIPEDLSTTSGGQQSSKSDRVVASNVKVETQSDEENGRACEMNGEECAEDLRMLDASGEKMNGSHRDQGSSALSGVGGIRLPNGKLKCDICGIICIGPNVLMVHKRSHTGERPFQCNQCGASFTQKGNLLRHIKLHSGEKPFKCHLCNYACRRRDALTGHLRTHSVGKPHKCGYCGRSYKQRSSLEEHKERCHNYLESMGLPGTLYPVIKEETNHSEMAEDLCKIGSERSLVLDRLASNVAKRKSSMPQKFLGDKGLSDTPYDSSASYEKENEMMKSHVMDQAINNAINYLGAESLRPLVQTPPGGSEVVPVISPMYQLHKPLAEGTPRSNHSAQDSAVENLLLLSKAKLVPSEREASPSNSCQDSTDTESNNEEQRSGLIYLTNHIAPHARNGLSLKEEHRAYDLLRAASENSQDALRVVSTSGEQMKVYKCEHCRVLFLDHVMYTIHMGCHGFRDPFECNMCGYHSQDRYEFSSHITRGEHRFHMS
T1 sequence (Q96SW2 whole entry): as the sequence (Q96SW2 whole entry) above
T1 sequence (Q16531 whole entry partner): as the sequence (Q16531 whole entry partner) above
T2 sequence (Q9UKS7 whole entry): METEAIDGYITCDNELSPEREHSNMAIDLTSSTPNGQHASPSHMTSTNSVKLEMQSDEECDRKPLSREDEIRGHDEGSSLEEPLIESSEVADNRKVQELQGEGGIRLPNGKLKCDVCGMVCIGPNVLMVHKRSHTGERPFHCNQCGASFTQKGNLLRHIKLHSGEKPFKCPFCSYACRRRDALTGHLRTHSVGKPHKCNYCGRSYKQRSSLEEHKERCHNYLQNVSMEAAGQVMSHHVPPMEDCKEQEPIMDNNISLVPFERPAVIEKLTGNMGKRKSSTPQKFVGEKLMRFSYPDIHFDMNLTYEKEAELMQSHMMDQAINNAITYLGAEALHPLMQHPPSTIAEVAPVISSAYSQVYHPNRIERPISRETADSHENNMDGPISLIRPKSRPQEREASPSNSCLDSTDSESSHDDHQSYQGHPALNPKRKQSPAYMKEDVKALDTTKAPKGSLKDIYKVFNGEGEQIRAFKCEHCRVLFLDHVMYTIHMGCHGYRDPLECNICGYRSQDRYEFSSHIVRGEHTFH
T2 sequence (Q96SW2 whole entry): as the sequence (Q96SW2 whole entry) above
T2 sequence (Q16531 whole entry partner): as the sequence (Q16531 whole entry partner) above
T3 sequence (P48729 whole entry): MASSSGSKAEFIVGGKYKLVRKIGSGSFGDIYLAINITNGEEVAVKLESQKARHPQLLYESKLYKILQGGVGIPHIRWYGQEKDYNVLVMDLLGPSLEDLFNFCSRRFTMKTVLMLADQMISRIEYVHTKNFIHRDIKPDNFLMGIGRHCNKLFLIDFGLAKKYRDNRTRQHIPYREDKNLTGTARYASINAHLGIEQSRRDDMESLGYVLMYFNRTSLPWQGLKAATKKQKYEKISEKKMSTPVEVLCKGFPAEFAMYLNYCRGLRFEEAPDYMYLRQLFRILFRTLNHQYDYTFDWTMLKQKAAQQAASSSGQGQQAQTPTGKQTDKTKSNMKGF
T3 sequence (Q96SW2 whole entry): as the sequence (Q96SW2 whole entry) above
T3 sequence (Q16531 whole entry partner): as the sequence (Q16531 whole entry partner) above

SMILES	IKZF1% degradation at 100 nM [6] [%]	IKZF1% degradation at 1 μM [6] [%]	IKZF2% degradation at 100 nM [7] [%]	IKZF2% degradation at 1 μM [7] [%]	CK1α % degradation at 100 nM [8] [%]	CK1α % degradation at 1 μM [8] [%]	GSPT1% degradation at 100 nM [10] [%]	GSPT1% degradation at 1 μM [10] [%]	degradation activity for CK1α and/or IKZF2, while sparing IKZF1 and/or GSPT1 (in words) [9]	further results
O=C1CCC(N2Cc3cc(CNC(=O)C(F)(F)c4ccc(Cl)cc4)ccc3C2=O)C(=O)N1 (centres unmarked) [CC-90009, reference compound]										EC50 [1]: 269 nM; EC50 [2]: 36 nM; EC50 [3]: 7 nM
COc1ccc2cc(C(=O)Nc3ccc4c(c3)CN(C3CCC(=O)NC3=O)C4=O)ccc2c1 (centres unmarked) [DEG-35, N-(2-(2,6-dioxopiperidin-3-yl)-1-oxoisoindolin-5-yl)-6-methoxy-2-naphthamide]										solubility (in words) [4]: limited solubility; EC50 ([2]; Homo sapiens, 120 h): 8 nM; IC50 [5]: 6 nM
O=C1CCC(N2Cc3cc(NC(=O)c4cccc(Oc5ccccc5)c4)ccc3C2=O)C(=O)N1 (centres unmarked) [DEG-55, N-(2-(2,6-dioxopiperidin-3-yl)-1-oxoisindolin-5-yl)-3-phenoxybenzamide]	62.1 ± 0.2	86.8 ± 0.4	73.9 ± 0.4	91.1 ± 0.1	57.6 ± 1.7	67.4 ± 1.4	8.8 ± 0.8	14 ± 1.8	good degradation activity	
O=C1CCC(N2Cc3cc(NC(=O)c4ccc(Oc5ccccc5)cc4)ccc3C2=O)C(=O)N1 (centres unmarked) [DEG-61, N-(2-(2,6-dioxopiperidin-3-yl)-1-oxoisoindolin-5-yl)-4-phenoxybenzamide]	5.2 ± 1	9.6 ± 0.5	78.4 ± 0.8	91.4 ± 0.1	60.9 ± 0.7	65.8 ± 1.2	10.2 ± 2.8	16.9 ± 2.3	good degradation activity	
O=C1CCC(N2Cc3cc(NC(=O)Cc4cccc5ccccc45)ccc3C2=O)C(=O)N1 (centres unmarked) [DEG-67, N-(2-(2,6-dioxopiperidin-3-yl)-1-oxoisoindolin-5-yl)-2-(naphthalen-1-yl)acetamide]	97.2 ± 0.1	98.1 ± 0.1	92.2 ± 0.1	94.6 ± 0	64.4 ± 0.5	62.8 ± 0.5	25.3 ± 0.5	30.9 ± 1	good degradation activity	
C[C@H](NC(=O)c1ccccc1)C(=O)Nc1ccc2c(c1)CN(C1CCC(=O)NC1=O)C2=O (stereo partly drawn) [DEG-98, N-((2S)-1-((2-(2,6-dioxopiperidin-3-yl)-1-oxoisoindolin-5-yl)amino)-1-oxopropan-2-yl)benzamide]	50.9	79.7	35.8	68.1	18.2	41.2	5.5	6.2		Dmax ([6]; HEK-293T, Table 3): 88%; DC50 ([6]; Table 3): 72 nM; Dmax ([7]; HEK-293T, Table 3): 80.5%; DC50 ([7]; Table 3): 143 nM; Dmax ([8]; CK1, Table 3, read-out: Dmax CK1a (%)): 54.1%; DC50 ([8]; Table 3, read-out: DC50 CK1a): 175 nM; solubility ([4]; DMSO, organic solvent or mixture): > 100 mM; Dmax ([10]; HEK-293T, Table 3): 0%
COc1ccc2cc(C(=O)Nc3ccc4c(c3)CN(C3CCC(=O)N(C)C3=O)C4=O)ccc2c1 (centres unmarked) [Me-DEG-35, 6-methoxy-N-(2-(1-methyl-2,6-dioxopiperidin-3-yl)-1-oxoisoindolin-5-yl)-2-naphthamide]										sensitivity of A2780 cells (in words) [1]: limited activity; sensitivity of OCI-LY3 cells (in words) [2]: limited activity
COc1cc(C(=O)O)ccc1NC(=O)[C@@H]1N[C@@H](CC(C)(C)C)[C@](C#N)(c2ccc(Cl)cc2F)[C@H]1c1cccc(Cl)c1F [idasanutlin, reference compound]										sensitivity of A2780 cells (in words) [1]: no demonstrable sensitivity; sensitivity of OCI-LY3 cells (in words) [2]: very limited sensitivity

More lines, main results first:

IKZF1% degradation at 100 nM [6] [%]	IKZF1% degradation at 1 μM [6] [%]	IKZF2% degradation at 100 nM [7] [%]	IKZF2% degradation at 1 μM [7] [%]	CK1α % degradation at 100 nM [8] [%]	CK1α % degradation at 1 μM [8] [%]	GSPT1% degradation at 100 nM [10] [%]	GSPT1% degradation at 1 μM [10] [%]	SMILES	degradation activity for CK1α and/or IKZF2, while sparing IKZF1 and/or GSPT1 (in words) [9]	further results
15.2 ± 0.2	29.2 ± 0.5	83.9 ± 0.4	93.8 ± 0.1	68.4 ± 0.2	72.8 ± 0.1	10.5 ± 1.7	12.2 ± 1.9	O=C1CCC(N2Cc3cc(NC(=O)C4=Cc5ccccc5OC4)ccc3C2=O)C(=O)N1 (centres unmarked) [DEG-52, N-(2-(2,6-dioxopiperidin-3-yl)-1-oxoisoindolin-5-yl)-2H-chromene-3-carboxamide]	good degradation activity	
13.1 ± 0.8	29.4 ± 0.3	70.8 ± 0.3	89.6 ± 0.1	60.2 ± 2.3	67 ± 1.1	7.6 ± 1.5	11.1 ± 1.3	O=C(/C=C/c1ccccc1)Nc1ccc2c(c1)CN(C1CCC(=O)NC1=O)C2=O (centres unmarked) [DEG-56, N-(2-(2,6-dioxopiperidin-3-yl)-1-oxoisoindolin-5-yl)cinnamamide]	good degradation activity	
13.4 ± 0.6	26.5 ± 1.2	79.7 ± 0.1	92 ± 0.1	61.7 ± 2.4	63.3 ± 3.9	2 ± 3.6	−1 ± 3.4	O=C1CCC(N2Cc3cc(NC(=O)c4cc5ccccc5o4)ccc3C2=O)C(=O)N1 (centres unmarked) [DEG-59, N-(2-(2,6-dioxopiperidin-3-yl)-1-oxoisoindolin-5-yl)benzofuran-2-carboxamide]	good degradation activity	
